Biological target: JAK1 (recombinant purified GST-tagged catalytic domain) (Homo sapiens (Human), UniProt P23458)
Test: Jak Biochemical HTRF Assay (JAK1)
Conditions: [ATP] 31.8 μM
Protocol: Jak Biochemical HTRF Assay Protocol
The ability of compounds to inhibit the activity of JAK1, JAK2, JAK3, and Tyk2 was measured using a recombinant purified GST-tagged catalytic domain for each enzyme (Invitrogen JAK1 #M4290, JAK2 #M4290, JAK3 #M4290, Tyk2 #M4290) in an HTRF format biochemical assay. The reactions employed a common peptide substrate, LCB-[…]-NH2 (in-house). The basic assay protocol is as follows: First, 250 nL of diluted compounds in DMSO were dispensed into the wells of a dry 384-well Black plate (Greiner #781076) using a Labcyte Echo 555 acoustic dispenser. Subsequent reagent additions employed an Agilent Bravo. […] After equilibration, 2 μL of 10×ATP in 1× assay buffer was added to initiate the kinase reaction and the plates were shaken and then incubated at room temperature for 120 minutes. At the end of the incubation, 20 μL of 2× stop buffer (streptavidin-Dylight 650 (Thermo #84547B/100 mL), Eu-tagged pY20 antibody (Perkin Elmer #AD0067), EDTA, HEPES, and Triton) was added to quench the reaction. Plates were shaken and centrifuged and then incubated 60 minutes at room temperature and then read on a Perkin Elmer Envision (λex=337 nm, λem=665 and 615 nm, TRF delay time=20 μs). HTRF signal=10,000*665 nm reading/615 nm reading. After normalization to untreated controls, the percent inhibition of the HTRF signal at each compound concentration was calculated. The plot of percent inhibition versus the log of compound concentration was fit with a 4-parameter dose response equation to calculate IC50 values.
Final reaction conditions were:
Examples of the instant invention were evaluated in JAK1 and JAK2 in vitro binding assays as described above. The following table tabulates the JAK1 IC50 values and JAK2 IC50 values disclosed for the instant invention.

Chain of JAK1 (recombinant purified GST-tagged catalytic domain) (P23458 875-1153): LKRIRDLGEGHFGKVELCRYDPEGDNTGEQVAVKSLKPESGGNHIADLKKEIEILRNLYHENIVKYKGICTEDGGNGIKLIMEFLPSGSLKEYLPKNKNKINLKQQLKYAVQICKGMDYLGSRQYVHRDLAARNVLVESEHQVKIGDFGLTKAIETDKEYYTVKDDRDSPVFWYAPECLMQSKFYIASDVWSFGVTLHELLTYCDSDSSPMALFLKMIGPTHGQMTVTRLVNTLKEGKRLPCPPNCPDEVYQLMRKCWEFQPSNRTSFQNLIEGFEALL

| SMILES | IC50 |
| --- | --- |
| Cc1cc(Nc2nn([C@]3(CC#N)CC[C@@H](C(=O)OC(C)(C)C)OC3)c3cc[nH]c(=O)c23)ccc1C(=O)N1CCSC(C)C1 (single isomer, unassigned) [Example 5-158, (2S,5S)-tert-butyl 5-(cyanomethyl)-5-(3-((3-methyl-4-((S or R)-2-methylthiomorpholine-4-carbonyl)phenyl)amino)-4-oxo-4,5-dihydro-1H-pyrazolo[4,3-c]pyridin-1-yl)tetrahydro-2H-pyran-2-carboxylate] | 0.28 nM |
| Cc1cc(Nc2nn([C@]3(CC#N)CC[C@@H](C(=O)OC(C)(C)C)OC3)c3cc[nH]c(=O)c23)ccc1C(=O)N1CCC(O)(C(F)(F)F)C1 (single isomer, unassigned) [Example 5-161, (2S,5S)-tert-butyl 5-(cyanomethyl)-5-(3-((4-((S or R)-3-hydroxy-3-(trifluoromethyl)pyrrolidine-1-carbonyl)-3-methylphenyl)amino)-4-oxo-4,5-dihydro-1H-pyrazolo[4,3-c]pyridin-1-yl)tetrahydro-2H-pyran-2-carboxylate] | 0.29 nM |
| CC(C)(C)OC(=O)[C@@H]1CC[C@@](CC#N)(n2nc(Nc3ccc(C(O)(C(C)(C)C)C(F)(F)F)cc3)c3c(=O)[nH]ccc32)CO1 (single isomer, unassigned) [Example 5-166, (2S,5S)-tert-butyl 5-(cyanomethyl)-5-(4-oxo-3-((4-((S or R)-1,1,1-trifluoro-2-hydroxy-3,3-dimethylbutan-2-yl)phenyl)amino)-4,5-dihydro-1H-pyrazolo[4,3-c]pyridin-1-yl)tetrahydro-2H-pyran-2-carboxylate] | 1.28 nM |
| CC(C)(C)OC(=O)[C@@H]1CC[C@@](CC#N)(n2nc(Nc3ccc(C(O)(C(C)(C)C)C(F)(F)F)cc3)c3c(=O)[nH]ccc32)CO1 (single isomer, unassigned) [Example 5-167, (2S,5S)-tert-butyl 5-(cyanomethyl)-5-(4-oxo-3-((4-((S or R)-1,1,1-trifluoro-2-hydroxy-3,3-dimethylbutan-2-yl)phenyl)amino)-4,5-dihydro-1H-pyrazolo[4,3-c]pyridin-1-yl)tetrahydro-2H-pyran-2-carboxylate] | 0.83 nM |
| CC(C)(C)N1Cc2cc(Nc3nn([C@@]4(CC#N)CCOC[C@H]4F)c4cc[nH]c(=O)c34)ccc2C1=O (single isomer, unassigned) [Example 5-260, 2-((3S,4S or 3R,4R)-4-(3-(2-tert-butyl-1-oxoisoindolin-5-ylamino)-4-oxo-4,5-dihydropyrazolo[4,3-c]pyridin-1-yl)-3-fluoro-tetrahydro-2H-pyran-4-yl)acetonitrile] | 0.26 nM |
| COC(=O)c1ccc(Nc2nn(C3(CC#N)CN(C(=O)OC(C)(C)C)C3)c3cc[nH]c(=O)c23)cc1 [Example 4-2, tert-butyl 3-(cyanomethyl)-3-(3((4(methoxycarbonyl)phenyl)amino)-4-oxo-4,5-dihydro-1H-pyrazolo[4,3-c]pyridin-1-yl)azetidine-1-carboxylate] | 2.47 nM |
| CC(C)(C)OC(=O)N1CCC(CC#N)(n2nc(Nc3cccc(S(C)(=O)=O)c3)c3c(=O)[nH]ccc32)CC1 [Example 5-13, tert-butyl 4-(cyanomethyl)-4-(3-{[3-(methylsulfonyl)phenyl]amino}-4-oxo-4,5-dihydro-1H-pyrazolo[4,3-c]pyridin-1-yl)piperidine-1-carboxylate] | 0.5 nM |

Molecules with a lower IC50, results first:

| IC50 | SMILES |
| --- | --- |
| 0.23 nM | C[C@H]1CN(C(=O)OC(C)(C)C)CC[C@]1(CC#N)n1nc(Nc2ccc(S(C)(=O)=O)cc2)c2c(=O)[nH]ccc21 (racemic) [Example 5-10, tert-butyl (3R,4S and 3S,4R)-4-(cyanomethyl)-3-methyl-4-(3-{[4-(methylsulfonyl)phenyl]amino}-4-oxo-4,5-dihydro-1H-pyrazolo[4,3-c]pyridin-1-yl)piperidine-1-carboxylate] |
| 0.2 nM | C[C@@H]1CN(C(=O)OC(C)(C)C)CC[C@]1(CC#N)n1nc(Nc2ccc(S(C)(=O)=O)cc2)c2c(=O)[nH]ccc21 (racemic) [Example 5-11, tert-butyl (3S,4S and 3R,4R)-4-(cyanomethyl)-3-methyl-4-(3-{[4-(methylsulfonyl)phenyl]amino}-4-oxo-4,5-dihydro-1H-pyrazolo[4,3-c]pyridin-1-yl)piperidine-1-carboxylate] |
| 0.15 nM | CC1(C)Cc2cc(Nc3nn([C@]4(CC#N)CCCOC4)c4cc[nH]c(=O)c34)ccc2C1(O)C(F)(F)F (single isomer, unassigned) [Example 5-119, 2-((S)-3-(3-(((S or R)-1-hydroxy-2,2-dimethyl-1-(trifluoromethyl)-2,3-dihydro-1H-inden-5-yl)amino)-4-oxo-4,5-dihydro-1H-pyrazolo[4,3-c]pyridin-1-yl)tetrahydro-2H-pyran-3-yl)acetonitrile] |
| 0.07 nM | CC1(C)Cc2cc(Nc3nn([C@]4(CC#N)CCCOC4)c4cc[nH]c(=O)c34)ccc2C1(O)C(F)(F)F (single isomer, unassigned) [Example 5-120, 2-((S)-3-(3-((S or R)-1-hydroxy-2,2-dimethyl-1-(trifluoromethyl)-2,3-dihydro-1H-inden-5-yl)amino)-4-oxo-4,5-dihydro-1H-pyrazolo[4,3-c]pyridin-1-yl)tetrahydro-2H-pyran-3-yl)acetonitrile] |
| 0.24 nM | Cc1cc(Nc2nn([C@]3(CC#N)CC[C@@H](C(=O)OC(C)(C)C)OC3)c3cc[nH]c(=O)c23)ccc1C(=O)N1CCSC(C)C1 (single isomer, unassigned) [Example 5-159, (2S,5S)-tert-butyl 5-(cyanomethyl)-5-(3-((3-methyl-4-((S or R)-2-methylthiomorpholine-4-carbonyl)phenyl)amino)-4-oxo-4,5-dihydro-1H-pyrazolo[4,3-c]pyridin-1-yl)tetrahydro-2H-pyran-2-carboxylate] |
| 0.22 nM | Cc1cc(Nc2nn([C@]3(CC#N)CC[C@@H](C(=O)OC(C)(C)C)OC3)c3cc[nH]c(=O)c23)ccc1C(=O)N1CCC(O)(C(F)(F)F)C1 (single isomer, unassigned) [Example 5-160, (2S,5S)-tert-butyl 5-(cyanomethyl)-5-(3-((4-((S or R)-3-hydroxy-3-(trifluoromethyl)pyrrolidine-1-carbonyl)-3-methylphenyl)amino)-4-oxo-4,5-dihydro-1H-pyrazolo[4,3-c]pyridin-1-yl)tetrahydro-2H-pyran-2-carboxylate] |
| 0.12 nM | CC(C)S(=N)(=O)c1ccc(Nc2nn([C@]3(CC#N)CC[C@@H](C(=O)OC(C)(C)C)OC3)c3cc[nH]c(=O)c23)cc1 (single isomer, unassigned) [Example 5-230, (2S,5S)-tert-butyl 5-(cyanomethyl)-5-(4-oxo-3-((4-(propan-2-yl-(S or R)-sulfonimidoyl)phenyl)amino)-4,5-dihydro-1H-pyrazolo[4,3-c]pyridin-1-yl)tetrahydro-2H-pyran-2-carboxylate] |
| 0.12 nM | CC(C)S(=N)(=O)c1ccc(Nc2nn([C@]3(CC#N)CC[C@@H](C(=O)OC(C)(C)C)OC3)c3cc[nH]c(=O)c23)cc1 (single isomer, unassigned) [Example 5-231, (2S,5S)-tert-butyl 5-(cyanomethyl)-5-(4-oxo-3-((4-(propan-2-yl-(S or R)-sulfonimidoyl)phenyl)amino)-4,5-dihydro-1H-pyrazolo[4,3-c]pyridin-1-yl)tetrahydro-2H-pyran-2-carboxylate] |
| 0.04 nM | CC(C)(C)N1Cc2cc(Nc3nn([C@]4(CC#N)CCOC[C@@H]4F)c4cc[nH]c(=O)c34)ccc2C1=O (single isomer, unassigned) [Example 5-259, 2-((3R,4R or 3S,4S)-4-(3-((2-(tert-butyl)-1-oxoisoindolin-5-yl)amino)-4-oxo-4,5-dihydro-1H-pyrazolo[4,3-c]pyridin-1-yl)-3-fluorotetrahydro-2H-pyran-4-yl)acetonitrile] |
| 0.25 nM | N#CC[C@]1(n2nc(Nc3ccc4c(c3)CN(C3CCNCC3)S4(=O)=O)c3c(=O)[nH]ccc32)CCOC[C@H]1F (single isomer, unassigned) [Example 5-271, 2-[(3S,4S or 3R,4R)-4-(3-{[1,1-dioxo-2-(piperidin-4-yl)-3H-1,2-benzothiazol-5-yl]amino}-4-oxo-5H-pyrazolo[4,3-c]pyridin-1-yl)-3-fluorooxan-4-yl]acetonitrile] |
| 0.06 nM | N#CC[C@@]1(n2nc(Nc3ccc4c(c3)CN(C3CCNCC3)S4(=O)=O)c3c(=O)[nH]ccc32)CCOC[C@@H]1F (single isomer, unassigned) [Example 5-272, 2-((3R,4R or 3S,4S)-4-(3-((1,1-dioxido-2-(piperidin-4-yl)-2,3-dihydrobenzo [d]isothiazol-5-yl)amino)-4-oxo-4,5-dihydro-1H-pyrazolo[4,3-c]pyridin-1-yl)-3-fluorotetrahydro-2H-pyran-4-yl)acetonitrile] |
